Here are results for twelve compounds from PubChem BioAssay (NCI).

Some test systems named below: HOP-62 NSCLC; HS 578T breast; MDA-MB-231 breast; MOLT-4 leukemia; NCI-H522 lung; OVCAR-4 ovarian; OVCAR-5 ovarian; SK-OV-3 ovarian; SNB-19 CNS; U251 CNS.
Test in all cases: inhibition of tumour cell growth, NCI panel, 48 h

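Values below derive from 48-hour exposures of cells grown in 96-well plates, with endpoints linearly interpolated between the two concentrations bracketing the appropriate inhibition level. The concentration for 50% growth inhibition is given as GI50. TGI is the concentration that stops growth completely.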

As to `CS(=O)(=O)OCC1OC(n2ccc(NC(=O)c3ccccc3)nc2=O)CC1OS(C)(=O)=O` (stereo not given), the TGI with HOP-62 NSCLC, in the experiment with HS 578T breast, in the experiment with MDA-MB-231 breast, in the experiment with MOLT-4 leukemia, with NCI-H522 lung and with OVCAR-4 ovarian was above 100 µM each time. For the same compound, the TGI in the experiment on OVCAR-5 ovarian, in the experiment on SK-OV-3 ovarian, with SNB-19 CNS and in the experiment on U251 CNS was above 100 µM in each case.

Regarding `CCCCCCc1cc2cc(-c3nc4ccccc4[nH]3)c(=Nc3ccccc3C)oc2cc1O`, the GI50 is 1.95 µM in the experiment on HOP-62 NSCLC; 2.37 µM in the experiment with HS 578T breast; 2.37 µM in the experiment with MDA-MB-231 breast; 3.9 µM in the experiment with MOLT-4 leukemia; 2.11 µM with NCI-H522 lung; 1.69 µM with OVCAR-4 ovarian. Moreover, the GI50 with OVCAR-5 ovarian was 3.64 µM; in the experiment on SK-OV-3 ovarian, 3.57 µM; in the experiment with SNB-19 CNS, 3.58 µM; with U251 CNS, 1.71 µM. Moreover, the TGI with HOP-62 NSCLC stood at 4.57 µM; in the experiment on HS 578T breast, 6.71 µM; in the experiment with MDA-MB-231 breast, 6.4 µM; in the experiment on MOLT-4 leukemia, 22.5 µM; in the experiment with NCI-H522 lung it was 5.11 µM; in the experiment on OVCAR-4 ovarian it was 3.37 µM. Besides, the TGI with OVCAR-5 ovarian was found to be 29 µM; in the experiment with SK-OV-3 ovarian, 13.7 µM; with SNB-19 CNS it was 22 µM; in the experiment on U251 CNS, 3.3 µM.

Turning to `CCN1/C(=C/C=C/c2n(-c3ccccc3)c3ccc(-c4nc5ccccc5s4)cc3[n+]2CC)N(c2ccccc2)c2ccc(-c3nc4ccccc4s3)cc21`, the GI50 with HS 578T breast is 0.284 µM; in the experiment with MDA-MB-231 breast, 0.19 µM; with MOLT-4 leukemia it was 1.8 µM; in the experiment on NCI-H522 lung, 0.585 µM; in the experiment on OVCAR-4 ovarian, 0.765 µM; with OVCAR-5 ovarian it was 1.53 µM. Besides, the figures for the GI50 in the experiment on SNB-19 CNS and in the experiment with U251 CNS were 0.369 µM and 0.274 µM, respectively. For the same compound, the TGI with HS 578T breast was above 50 µM; in the experiment with MDA-MB-231 breast, 1.68 µM; with MOLT-4 leukemia it was above 50 µM; with NCI-H522 lung it was 3.41 µM; in the experiment on OVCAR-4 ovarian it was above 50 µM; in the experiment on OVCAR-5 ovarian, above 50 µM. Besides, the results for the TGI in the experiment on SNB-19 CNS and in the experiment with U251 CNS were above 50 µM and 1.92 µM, respectively.

As for `Nc1ccccc1-c1ccc([N+](=O)[O-])cc1`, the GI50 was above 100 µM in the experiment with HOP-62 NSCLC; 50.8 µM in the experiment on HS 578T breast; 36.3 µM in the experiment with MDA-MB-231 breast; 4.28 µM with MOLT-4 leukemia; 11.2 µM with NCI-H522 lung; 40.8 µM in the experiment with OVCAR-4 ovarian. Also, the GI50 in the experiment on OVCAR-5 ovarian is 31.8 µM; in the experiment with SK-OV-3 ovarian, 68.3 µM; in the experiment with SNB-19 CNS, 24.2 µM; in the experiment with U251 CNS, 40.7 µM. The TGI in the experiment with HOP-62 NSCLC, in the experiment on HS 578T breast, in the experiment with MDA-MB-231 breast, in the experiment with MOLT-4 leukemia, in the experiment with NCI-H522 lung and with OVCAR-4 ovarian was above 100 µM in each case. In addition, the TGI in the experiment with OVCAR-5 ovarian, in the experiment with SK-OV-3 ovarian, in the experiment on SNB-19 CNS and in the experiment on U251 CNS was above 100 µM throughout.

Take `CCOc1ccccc1NC(=O)c1cc2ccccc2cc1O`: the GI50 was 3.32 µM in the experiment on HOP-62 NSCLC; 2.85 µM in the experiment with HS 578T breast; 2.02 µM in the experiment on MDA-MB-231 breast; 2.72 µM in the experiment with MOLT-4 leukemia; 2.22 µM in the experiment with NCI-H522 lung; 3.69 µM in the experiment with OVCAR-4 ovarian. Moreover, the GI50 in the experiment on OVCAR-5 ovarian was 7.06 µM; in the experiment on SNB-19 CNS, 4.28 µM; in the experiment on U251 CNS, 3.11 µM. The TGI was 16.7 µM with HOP-62 NSCLC; 7.14 µM with HS 578T breast; 4.19 µM in the experiment on MDA-MB-231 breast; 7.17 µM in the experiment on MOLT-4 leukemia; 6.9 µM in the experiment on NCI-H522 lung; 19.6 µM in the experiment on OVCAR-4 ovarian. Also, the TGI was 27.7 µM in the experiment on OVCAR-5 ovarian, 25.1 µM in the experiment on SNB-19 CNS and 11.6 µM in the experiment with U251 CNS.

Regarding `N=C(N)c1ccc(OCCOCCOc2ccc(C(=N)N)cc2)cc1`, the GI50 was above 100 µM with HOP-62 NSCLC; 67.3 µM with HS 578T breast; above 100 µM with MDA-MB-231 breast; above 100 µM with MOLT-4 leukemia; 45.5 µM in the experiment on NCI-H522 lung; above 100 µM in the experiment on OVCAR-4 ovarian. Moreover, the GI50 with OVCAR-5 ovarian is above 100 µM; in the experiment on SNB-19 CNS, 80.6 µM; in the experiment with U251 CNS, 77.6 µM. For the same compound, the TGI in the experiment on HOP-62 NSCLC, in the experiment on HS 578T breast, in the experiment on MDA-MB-231 breast, with MOLT-4 leukemia, in the experiment with NCI-H522 lung and in the experiment with OVCAR-4 ovarian was above 100 µM in each case. For the same compound, the TGI in the experiment with OVCAR-5 ovarian, in the experiment with SNB-19 CNS and in the experiment on U251 CNS was above 100 µM each time.

In the case of `O=C(Nc1ccc(F)cc1)Nc1ccccc1CNc1nc(Nc2ccc(OCCN3CCCC3)cc2)ncc1Cl`, the GI50 in the experiment with HOP-62 NSCLC is 1.39 µM; in the experiment on HS 578T breast, 0.99 µM; in the experiment with MDA-MB-231 breast it was 0.871 µM; in the experiment on MOLT-4 leukemia, 1.53 µM; in the experiment with NCI-H522 lung, 2.26 µM; in the experiment on OVCAR-4 ovarian, 1.11 µM. The GI50 in the experiment on OVCAR-5 ovarian was 1.76 µM; in the experiment on SNB-19 CNS, 3 µM; with U251 CNS, 1.28 µM. Besides, the TGI in the experiment on HOP-62 NSCLC came to 4.21 µM; in the experiment on HS 578T breast it was 2.58 µM; with MDA-MB-231 breast, 1.77 µM; with MOLT-4 leukemia, 4.74 µM; in the experiment with NCI-H522 lung, 13.4 µM; in the experiment on OVCAR-4 ovarian, 2.93 µM. Also, the TGI in the experiment with OVCAR-5 ovarian was determined as 6.88 µM; in the experiment on SNB-19 CNS, 11.1 µM; in the experiment on U251 CNS, 3.73 µM.

As for `CC(C)c1c(C(=O)Nc2ccccc2)c(-c2ccccc2)c(-c2ccc(F)cc2)n1CC[C@@H]1CC=CC(=O)O1`, the GI50 with HOP-62 NSCLC is 1.85 µM; with HS 578T breast, 2.14 µM; with MDA-MB-231 breast, 2.08 µM; with MOLT-4 leukemia, 2.62 µM; with NCI-H522 lung, 1.5 µM; in the experiment on OVCAR-5 ovarian it was 2.05 µM. Further, the GI50 is 3.39 µM with SK-OV-3 ovarian, 1.7 µM in the experiment on SNB-19 CNS and 1.7 µM in the experiment on U251 CNS. The TGI with HOP-62 NSCLC stood at 4.14 µM; in the experiment with HS 578T breast, 6.05 µM; in the experiment with MDA-MB-231 breast, 4.51 µM; in the experiment on MOLT-4 leukemia it was 6.98 µM; in the experiment with NCI-H522 lung, 2.98 µM; in the experiment with OVCAR-5 ovarian, 5.02 µM. In addition, the TGI is 11.9 µM with SK-OV-3 ovarian, 3.13 µM in the experiment on SNB-19 CNS and 3.17 µM in the experiment on U251 CNS.

As for `CC(C)(O)C#Cc1ccc(/C=C/C(=O)c2ccccc2)s1`, the GI50 in the experiment on HS 578T breast is 25.5 µM; in the experiment on MDA-MB-231 breast, 16.7 µM; with MOLT-4 leukemia it was 16.8 µM; in the experiment on NCI-H522 lung, 16 µM; in the experiment with OVCAR-4 ovarian it was 17.1 µM; in the experiment on OVCAR-5 ovarian, 16.5 µM. Also, the values for the GI50 with SK-OV-3 ovarian, in the experiment on SNB-19 CNS and in the experiment with U251 CNS were 16.5 µM, 16.9 µM and 13.6 µM, respectively. For the same compound, the TGI came to 79.7 µM in the experiment with HS 578T breast; 32.3 µM in the experiment with MDA-MB-231 breast; 43.6 µM in the experiment on MOLT-4 leukemia; 32.7 µM in the experiment on NCI-H522 lung; 39 µM in the experiment on OVCAR-4 ovarian; 32 µM in the experiment on OVCAR-5 ovarian. Further, the TGI stood at 30.1 µM with SK-OV-3 ovarian, 31.7 µM in the experiment on SNB-19 CNS and 26.5 µM with U251 CNS.

As to `CCOC(=O)/C(=N\OC)C(O)C(F)(F)F` (stereo not given), the TGI in the experiment with HOP-62 NSCLC, in the experiment on HS 578T breast, with MDA-MB-231 breast, with MOLT-4 leukemia, in the experiment on NCI-H522 lung and in the experiment with OVCAR-5 ovarian was above 100 µM each time. Moreover, the TGI in the experiment with SK-OV-3 ovarian, in the experiment with SNB-19 CNS and in the experiment on U251 CNS was above 100 µM each time.

`O=c1c2ccccc2c(Br)c(Br)c2ccccc12`: the GI50 is 21 µM with HOP-62 NSCLC; 11.8 µM with HS 578T breast; 19.9 µM with MDA-MB-231 breast; 1.76 µM in the experiment on NCI-H522 lung; 9.24 µM in the experiment with OVCAR-4 ovarian; 30.2 µM in the experiment with OVCAR-5 ovarian. Moreover, the figures for the GI50 in the experiment with SK-OV-3 ovarian, with SNB-19 CNS and with U251 CNS were 38.3 µM, 45.4 µM and 12.6 µM, respectively. In addition, the TGI in the experiment with HOP-62 NSCLC is 41.9 µM; in the experiment with HS 578T breast, 42.1 µM; with MDA-MB-231 breast, 50.7 µM; in the experiment with NCI-H522 lung it was 3.47 µM; with OVCAR-4 ovarian it was 80.9 µM; in the experiment with OVCAR-5 ovarian, above 100 µM. In addition, the TGI with SK-OV-3 ovarian was above 100 µM; in the experiment with SNB-19 CNS it was above 100 µM; with U251 CNS it was 29 µM.

`CN(CCCCCl)P(=O)(OCc1ccc([N+](=O)[O-])o1)OCC1OC(n2ccc(N)nc2=O)C(F)(F)C1O` (stereo not given): the GI50 is 0.494 µM with HOP-62 NSCLC; above 68 µM with HS 578T breast; above 49.3 µM in the experiment with MDA-MB-231 breast; 0.379 µM in the experiment with MOLT-4 leukemia; above 39 µM in the experiment on NCI-H522 lung; 1.92 µM in the experiment on OVCAR-5 ovarian. Besides, the GI50 in the experiment with SK-OV-3 ovarian was 2.22 µM; in the experiment with SNB-19 CNS, 0.257 µM; in the experiment with U251 CNS, 0.77 µM. Also, the TGI is above 100 µM in the experiment on HOP-62 NSCLC; above 100 µM with HS 578T breast; above 100 µM in the experiment on MDA-MB-231 breast; 8.92 µM in the experiment on MOLT-4 leukemia; above 100 µM in the experiment with NCI-H522 lung; above 100 µM with OVCAR-5 ovarian. Further, the results for the TGI in the experiment with SK-OV-3 ovarian and with U251 CNS were above 100 µM and above 86.5 µM, respectively.
